# Test results as given in PMC10004187 (Molecules, 2023).
# What was measured:
# [1] = tested on: Vero cell lines (normal kidney epithelial cells); test: SRB cytotoxicity assay against Vero cell line; type: cell-based; settings: initial screening
# Procedure: To investigate the cytotoxicity of potent compounds (8a, 8c, 8g, and 9i), an SRB assay was performed against Vero cell lines (normal kidney epithelial cells). The total protein generated when cells were treated with putative anticancer drugs was assessed using a very precise […] technique. […] It can readily connect with cells that have been fixed with trichloroacetic acid (TCA). A bright color is produced by the SRB dye when it binds solely to intracellular proteins, and the color is proportional to the quantity of protein present in the cell.
# [2] = target: T1, butyrylcholinesterase (BuChE) (Homo sapiens, UniProt P06276); test: biochemical
# T1 sequence (P06276 29-602): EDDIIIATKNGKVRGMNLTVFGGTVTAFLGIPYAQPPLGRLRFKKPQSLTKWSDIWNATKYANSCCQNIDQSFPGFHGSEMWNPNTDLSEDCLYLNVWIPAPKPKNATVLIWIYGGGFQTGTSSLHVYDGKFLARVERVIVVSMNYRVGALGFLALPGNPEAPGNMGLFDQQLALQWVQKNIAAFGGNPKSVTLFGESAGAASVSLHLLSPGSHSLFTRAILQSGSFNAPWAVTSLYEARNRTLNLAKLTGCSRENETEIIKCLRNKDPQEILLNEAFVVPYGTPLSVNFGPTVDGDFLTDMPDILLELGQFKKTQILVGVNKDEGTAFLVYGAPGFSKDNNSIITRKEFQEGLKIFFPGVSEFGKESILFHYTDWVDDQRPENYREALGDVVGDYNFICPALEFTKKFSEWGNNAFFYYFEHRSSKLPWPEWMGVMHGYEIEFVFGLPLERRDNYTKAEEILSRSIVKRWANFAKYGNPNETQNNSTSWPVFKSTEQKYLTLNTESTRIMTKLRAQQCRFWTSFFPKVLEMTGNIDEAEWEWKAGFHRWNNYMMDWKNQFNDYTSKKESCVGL
# [3] = target: T1, butyrylcholinesterase (BuChE); settings: for Butyrylcholinesterase (BuChE) Inhibition %Inhibition: given for compounds with <50% inhibition, test concentration not given
SMILES,Butyrylcholinesterase (BuChE) Inhibition %Inhibition [3] [%],other results
"Cc1ccc2nc(N3CCCCC3)c(C=NNC(=O)c3ccccc3)cc2c1 [Compound 8a, N′-((6-methyl-2-(piperidin-1-yl)quinolin-3-yl)methylene)benzohydrazide]",,inhibition of Vero cells (toxicity towards normal kidney cells) [1]: less than 22%; IC50 [2]: 4.64 ± 0.43 µM
"Cc1ccc2nc(N3CCCCC3)c(C=NNC(=O)c3cccc([N+](=O)[O-])c3)cc2c1 [Compound 8b, N′-((6-methyl-2-(piperidin-1-yl)quinolin-3-yl)methylene)-3-nitrobenzohydrazide]",,"BuChE inhibition ability, fold reduction relative to 8g ([3]; Cl exchanged for NO2, vs lead 8g): 3 folds; IC50 [2]: 4.71 ± 0.45 µM"
"Cc1ccc2nc(N3CCCCC3)c(C=NNC(=O)c3ccc([N+](=O)[O-])cc3)cc2c1 [Compound 8c, N′-((6-methyl-2-(piperidin-1-yl)quinolin-3-yl)methylene)-4-nitrobenzohydrazide]",,inhibition of Vero cells (toxicity towards normal kidney cells) [1]: less than 22%; IC50 [2]: 1.74 ± 0.03 µM
"Cc1ccc2nc(N3CCCCC3)c(C=NNC(=O)c3ccccc3N)cc2c1 [Compound 8d, 2-Amino-N′-((6-methyl-2-(piperidin-1-yl)quinolin-3-yl)methylene)benzohydrazide]",21,
"Cc1ccc2nc(N3CCCCC3)c(C=NNC(=O)c3ccc(N)cc3)cc2c1 [Compound 8e, 4-Amino-N′-((6-methyl-2-(piperidin-1-yl)quinolin-3-yl)methylene)benzohydrazide]",23,
"Cc1ccc2nc(N3CCCCC3)c(C=NNC(=O)c3ccccc3Cl)cc2c1 [Compound 8f, 2-Chloro-N′-((6-methyl-2-(piperidin-1-yl)quinolin-3-yl)methylene)benzohydrazide]",15,
"Cc1ccc2nc(N3CCCCC3)c(C=NNC(=O)c3cccc(Cl)c3)cc2c1 [Compound 8g, 3-Chloro-N′-((6-methyl-2-(piperidin-1-yl)quinolin-3-yl)methylene)benzohydrazide]",,inhibition of Vero cells (toxicity towards normal kidney cells) [1]: less than 22%; IC50 [2]: 1.31 ± 0.05 µM
"Cc1ccc2nc(N3CCCCC3)c(C=NNC(=O)c3ccc(Cl)cc3)cc2c1 [Compound 8h, 4-Chloro-N′-((6-methyl-2-(piperidin-1-yl)quinolin-3-yl)methylene)benzohydrazide]",34,
"Cc1ccc2nc(N3CCCCC3)c(C=NNC(=O)c3ccc(Cl)cc3Cl)cc2c1 [Compound 8i, 2,4-Dichloro-N′-((6-methyl-2-(piperidin-1-yl)quinolin-3-yl)methylene)benzohydrazide]",39,
"COc1ccccc1C(=O)NN=Cc1cc2cc(C)ccc2nc1N1CCCCC1 [Compound 8j, 2-Methoxy-N′-((6-methyl-2-(piperidin-1-yl)quinolin-3-yl)methylene)benzohydrazide]",30,
"COc1cccc(C(=O)NN=Cc2cc3cc(C)ccc3nc2N2CCCCC2)c1 [Compound 8k, 3-Methoxy-N′-((6-methyl-2-(piperidin-1-yl)quinolin-3-yl)methylene)benzohydrazide]",28,
"COc1ccc(C(=O)NN=Cc2cc3cc(C)ccc3nc2N2CCCCC2)cc1 [Compound 8l, 4-Methoxy-N′-((6-methyl-2-(piperidin-1-yl)quinolin-3-yl)methylene)benzohydrazide]",15,
"Cc1ccc2nc(N3CCCCC3)c(C=NNC(=O)c3ccccc3O)cc2c1 [Compound 8m, 2-Hydroxy-N′-((6-methyl-2-(piperidin-1-yl)quinolin-3-yl)methylene)benzohydrazide]",13,
"Cc1cccc2cc(C=NNC(=O)c3ccccc3)c(N3CCCCC3)nc12 [Compound 9a, N′-((8-methyl-2-(piperidin-1-yl)quinolin-3-yl)methylene)benzohydrazide]",32,
"Cc1cccc2cc(C=NNC(=O)c3cccc([N+](=O)[O-])c3)c(N3CCCCC3)nc12 [Compound 9b, N′-((8-methyl-2-(piperidin-1-yl)quinolin-3-yl)methylene)-3-nitrobenzohydrazide]",27,
"Cc1cccc2cc(C=NNC(=O)c3ccc([N+](=O)[O-])cc3)c(N3CCCCC3)nc12 [Compound 9c, N′-((8-methyl-2-(piperidin-1-yl)quinolin-3-yl)methylene)-4-nitrobenzohydrazide]",32,
"Cc1cccc2cc(C=NNC(=O)c3ccccc3Cl)c(N3CCCCC3)nc12 [Compound 9d, 2-Chloro-N′-((8-methyl-2-(piperidin-1-yl)quinolin-3-yl)methylene)benzohydrazide]",38,
"Cc1cccc2cc(C=NNC(=O)c3cccc(Cl)c3)c(N3CCCCC3)nc12 [Compound 9e, 3-Chloro-N′-((8-methyl-2-(piperidin-1-yl)quinolin-3-yl)methylene)benzohydrazide]",40,
"Cc1cccc2cc(C=NNC(=O)c3ccc(Cl)cc3)c(N3CCCCC3)nc12 [Compound 9f, 4-Chloro-N′-((8-methyl-2-(piperidin-1-yl)quinolin-3-yl)methylene)benzohydrazide]",36,
"Cc1cccc2cc(C=NNC(=O)c3ccc(Cl)cc3Cl)c(N3CCCCC3)nc12 [Compound 9g, 2,4-Dichloro-N′-((8-methyl-2-(piperidin-1-yl)quinolin-3-yl)methylene)benzohydrazide]",32,
"COc1ccccc1C(=O)NN=Cc1cc2cccc(C)c2nc1N1CCCCC1 [Compound 9h, 2-Methoxy-N′-((8-methyl-2-(piperidin-1-yl)quinolin-3-yl)methylene)benzohydrazide]",33,
"COc1cccc(C(=O)NN=Cc2cc3cccc(C)c3nc2N2CCCCC2)c1 [Compound 9i, 3-Methoxy-N′-((8-methyl-2-(piperidin-1-yl)quinolin-3-yl)methylene)benzohydrazide]",27,inhibition of Vero cells (toxicity towards normal kidney cells) [1]: less than 22%
"COc1ccc(C(=O)NN=Cc2cc3cccc(C)c3nc2N2CCCCC2)cc1 [Compound 9j, 4-Methoxy-N′-((8-methyl-2-(piperidin-1-yl)quinolin-3-yl)methylene)benzohydrazide]",38,
